Values quoted from earlier work, collected in publication PMC6462165 (International Journal of Nanomedicine, 2019).

System: endothelial cell proliferation
Conditions: inhibition of endothelial cell proliferation; cited from earlier work

Which “activity relative to the ES sequence” value does the source give for IVRRADRAAVP [ES2] here?
The value was “about three times more active than the ES sequence”.
